{"source": "paper PMC9079729", "about": "“Conservation of the conformational dynamics and ligand binding within M49 enzyme family” (RSC Advances, 2018)", "key": {"[1]": {"target": "T1, yDPP III (Saccharomyces cerevisiae, UniProt Q08225)", "T1 construct": "His6 (C); made in house; host or cells: E. coli", "T1 sequence (Q08225 1-711)": "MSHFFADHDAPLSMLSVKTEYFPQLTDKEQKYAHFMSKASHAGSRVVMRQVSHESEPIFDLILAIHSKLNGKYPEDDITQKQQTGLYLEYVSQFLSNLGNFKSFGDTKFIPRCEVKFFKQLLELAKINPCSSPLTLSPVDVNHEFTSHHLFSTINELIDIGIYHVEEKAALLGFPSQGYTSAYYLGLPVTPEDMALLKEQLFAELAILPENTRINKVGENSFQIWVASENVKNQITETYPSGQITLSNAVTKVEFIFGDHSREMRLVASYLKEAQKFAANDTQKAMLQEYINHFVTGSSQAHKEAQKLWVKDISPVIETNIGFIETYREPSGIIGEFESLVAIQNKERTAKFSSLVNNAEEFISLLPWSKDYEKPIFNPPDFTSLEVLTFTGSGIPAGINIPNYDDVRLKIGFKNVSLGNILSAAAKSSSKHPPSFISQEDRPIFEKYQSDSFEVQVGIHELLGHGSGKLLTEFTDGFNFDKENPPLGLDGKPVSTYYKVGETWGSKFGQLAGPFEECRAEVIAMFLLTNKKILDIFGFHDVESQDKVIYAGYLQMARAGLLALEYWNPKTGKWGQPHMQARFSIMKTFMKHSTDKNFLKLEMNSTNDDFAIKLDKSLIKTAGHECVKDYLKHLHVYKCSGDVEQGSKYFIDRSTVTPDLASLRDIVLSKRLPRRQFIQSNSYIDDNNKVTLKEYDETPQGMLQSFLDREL", "assay": "Inhibition of DPP III hydrolysis of Arg2-2NA by tynorphin", "assay_type": "biochemical, yeast (Saccharomyces cerevisiae)", "settings": "substrate Arg2-2NA, from initial hydrolysis rates, eq. 1", "experimental": "(§1) The Km values for hydrolysis of fluorogenic substrate Arg2-2NA were determined at pH 7.4 (20 mM Tris–HCl buffer) and at 25 °C, from the initial reaction rates as previously described.[26]\n(§2) Enzyme inhibition studies with tynorphin were performed using the Arg2-2NA as a substrate, according to Baršun et al.[36] The inhibition constant, Ki, was calculated according to the equation:1 Ki = i/(v0/vi − 1)·Km/(Km + s)where v0 and vi are the initial hydrolysis rates of Arg2-2NA (given in concentration s) catalyzed by DPP III in the absence and presence of inhibitor concentration (i), and Km is the Michaelis constant."}, "[2]": {"target": "T2, hDPP III (Homo sapiens, UniProt Q9NY33)", "T2 sequence (Q9NY33 1-737)": "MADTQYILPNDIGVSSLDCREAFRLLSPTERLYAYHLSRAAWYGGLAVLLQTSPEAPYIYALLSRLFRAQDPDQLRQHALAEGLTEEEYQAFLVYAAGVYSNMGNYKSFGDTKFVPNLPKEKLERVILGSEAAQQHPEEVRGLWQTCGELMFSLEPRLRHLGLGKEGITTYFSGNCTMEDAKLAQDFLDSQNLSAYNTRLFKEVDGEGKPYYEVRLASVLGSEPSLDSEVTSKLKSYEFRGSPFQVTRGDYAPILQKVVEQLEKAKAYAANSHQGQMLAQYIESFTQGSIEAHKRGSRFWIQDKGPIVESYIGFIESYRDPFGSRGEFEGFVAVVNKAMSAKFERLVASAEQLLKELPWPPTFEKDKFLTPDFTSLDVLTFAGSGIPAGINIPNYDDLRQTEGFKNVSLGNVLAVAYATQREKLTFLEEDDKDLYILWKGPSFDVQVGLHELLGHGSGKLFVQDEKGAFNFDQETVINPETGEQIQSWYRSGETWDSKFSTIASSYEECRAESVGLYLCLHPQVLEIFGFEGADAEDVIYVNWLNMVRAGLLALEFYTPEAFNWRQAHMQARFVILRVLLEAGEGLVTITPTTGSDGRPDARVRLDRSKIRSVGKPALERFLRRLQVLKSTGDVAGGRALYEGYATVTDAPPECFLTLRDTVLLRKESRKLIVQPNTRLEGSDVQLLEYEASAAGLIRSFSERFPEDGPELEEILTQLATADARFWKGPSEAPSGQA", "assay": "biochemical", "experimental": "as §1, §2"}}, "note": "Residues, ends and D or L forms follow the SMILES beside them."}
{"smiles": "CC(C)[C@H](N)C(=O)N[C@H](C(=O)N[C@@H](Cc1ccc(O)cc1)C(=O)N1CCC[C@H]1C(=O)N[C@@H](Cc1c[nH]c2ccccc12)C(=O)O)C(C)C", "note": "[tynorphin] (H-VVYPW-OH)", "values": [{"measurement": "Ki", "setting": "[1]", "result": 470, "unit": "nM"}, {"measurement": "Ki", "setting": "[2]", "result": 30, "unit": "nM"}]}
